In US9688642B2, “Substituted pyrazines as GPR40 agonists” (Janssen Pharmaceutica NV, priority 2014, dated 2017):
Where “and” joins values, the source holds several entries; their conditions need not be identical. Identical values can stand only once.

Experiments:
human GPR40 = human GPR40 (Homo sapiens (Human), UniProt O14842); assay: GPR40 calcium flux assay, HEK293 cells stably expressing human GPR40; type: cell-based; conditions: transfected HEK293 cells stably expressing human GPR40; individual determinations listed; read-out: hGPR40 Ca2+ Assay EC50
human GPR40, sequence (O14842 whole entry): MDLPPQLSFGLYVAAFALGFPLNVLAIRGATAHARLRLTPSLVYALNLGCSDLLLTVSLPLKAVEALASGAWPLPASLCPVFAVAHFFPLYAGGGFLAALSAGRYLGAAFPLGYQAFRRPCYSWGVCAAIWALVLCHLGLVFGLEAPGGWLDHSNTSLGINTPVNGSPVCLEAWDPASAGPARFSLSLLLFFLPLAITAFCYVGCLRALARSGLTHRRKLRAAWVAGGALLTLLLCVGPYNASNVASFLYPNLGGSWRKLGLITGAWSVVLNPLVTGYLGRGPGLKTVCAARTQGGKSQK
Description: (§1) Compounds were tested in a calcium flux assay using transfected HEK293 cells stably expressing either human GPR40 or rat GPR40. Human GPR40 expressing cells were cultured in DMEM-High Glucose media supplemented with 10% fetal bovine serum, 1×L-Glutamine, 1× Penicillin/Streptomycin and 500 μg/mL G418. Rat GPR40 expressing cells were cultured in DMEM-High Glucose media supplemented with 10% fetal bovine serum and 1 μg/mL puromycin. Cells were plated into poly-D-lysine coated 384-well plates and cultured overnight in a 37° C. humidified tissue culture incubator under 5% CO2/90% O2 atmosphere. On the day of the experiment, the culture media was replaced with assay buffer (HBSS, 20 mM HEPES, 0.1% BSA) and the cells incubated at 37° C. for 1 h. Calcium-sensitive fluorescent dye (Fluo 8 No-Wash Calcium Dye, ABD Bioquest) was then added and the cells incubated for another 30 min at 37° C. followed by 15 min at room temperature while protected from the light. The cell plate and a plate of diluted compounds of Formula (I) were loaded into a fluorescent plate reader that added compounds onto the cells while measuring the fluorescence intensity of each well. The plate reader recorded fluorescence intensity at 1 second intervals for 8 min and provided the data for analysis in an Excel format. EC50 values were calculated using Prism (GraphPad) software.

rat GPR40 = rat GPR40 (Rattus norvegicus (Rat), UniProt Q8K3T4); assay: GPR40 calcium flux assay, HEK293 cells stably expressing rat GPR40; type: cell-based; conditions: transfected HEK293 cells stably expressing rat GPR40; individual determinations listed; read-out: rGPR40 Ca2+ Assay EC50
rat GPR40, sequence (Q8K3T4 whole entry): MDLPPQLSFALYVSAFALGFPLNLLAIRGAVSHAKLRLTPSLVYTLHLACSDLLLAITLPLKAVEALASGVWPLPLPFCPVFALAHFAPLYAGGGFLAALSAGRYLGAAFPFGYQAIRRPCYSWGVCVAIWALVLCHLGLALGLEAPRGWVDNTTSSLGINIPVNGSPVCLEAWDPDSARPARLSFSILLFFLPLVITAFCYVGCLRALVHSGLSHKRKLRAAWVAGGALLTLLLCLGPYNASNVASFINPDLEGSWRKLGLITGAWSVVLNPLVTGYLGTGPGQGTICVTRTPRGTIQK
Description: as §1

Male SD rats = assay: Oral glucose tolerance test; type: in vivo, rat; conditions: dosed 30 min prior to oGTT (glucose 2 g/kg po), blood glucose AUC t=0 to t=120 minutes vs vehicle
Description: Male SD rats (200-250 g) were housed 2 per cage in a temperature-controlled room with a 12-hour light/dark cycle. They were allowed ad libitum access to water and fed with normal rodent chow. The night before the oral glucose tolerance test (oGTT), the rats were transferred to clean cages and fasted overnight. On the morning of the oGTT, the rats were weighed and randomized into groups based on fasted blood glucose and body weight. Rats were dosed with vehicle (0.5% methocel) or compounds thirty min prior to the oGTT (glucose, 2 g/kg, po). Blood was collected from the tail vein at 0, 10, 30, 60 and 120 minutes after glucose challenge to measure blood glucose; plasma was used to determine insulin levels.

SMILES | EC50 (human GPR40) | EC50 (rat GPR40) | Percent Lowering of Glucose (AUC compound vs. AUC Vehicle) (Male SD rats) [%]
COc1ccc(F)c(-c2ncc(COc3cccc([C@@H](CC(=O)O)C4CC4)c3)nc2OC2CCCC2)c1 [Cpd 13, (3S)-3-[3-[[6-(cyclopentoxy)-5-(2-fluoro-5-methoxy-phenyl)pyrazin-2-yl]methoxy]phenyl]-3-cyclopropyl-propanoic acid] | 19 nM (2×) and 20 nM and 10 nM and 8 nM | 31 nM and 30 nM (2×) and 53 nM and 33 nM | 84
COc1ccc(F)c(-c2ncc(COc3cccc([C@@H](CC(=O)O)C4CC4)c3)nc2C=C(C)C)c1 [Cpd 8, (3S)-3-cyclopropyl-3-[3-[[5-(2-fluoro-5-methoxy-phenyl)-6-(2-methylprop-1-enyl)pyrazin-2-yl]methoxy]phenyl]propanoic acid] | 10 nM and 9 nM and 14 nM and 8 nM and 6 nM | 39 nM and 29 nM and 76 nM and 50 nM | 91
COc1ccc(F)c(-c2ncc(COc3cccc([C@@H](CC(=O)O)C4CC4)c3)nc2C2=CCCC2(C)C)c1 [Cpd 30, (3S)-3-cyclopropyl-3-[3-[[6-(5,5-dimethylcyclopenten-1-yl)-5-(2-fluoro-5-methoxy-phenyl)pyrazin-2-yl]methoxy]phenyl]propanoic acid] | – | – | 87
COc1ccc(F)c(-c2ncc(COc3cccc([C@@H](CC(=O)O)C4CC4)c3)nc2N2CCCCC2)c1 [Cpd 22, (3S)-3-cyclopropyl-3-[3-[[5-(2-fluoro-5-methoxy-phenyl)-6-(1-piperidyl)pyrazin-2-yl]methoxy]phenyl]propanoic acid] | 18 nM and 12 nM | 53 nM and 46 nM and 43 nM and 31 nM | –
COc1ccc(F)c(-c2ncc(COc3cccc([C@@H](CC(=O)O)C4CC4)c3)nc2-c2sccc2C)c1 [Cpd 33, (3S)-3-cyclopropyl-3-[3-[[5-(2-fluoro-5-methoxy-phenyl)-6-(3-methyl-2-thienyl)pyrazin-2-yl]methoxy]phenyl]propanoic acid] | 34 nM and 27 nM | 120 nM and 110 nM and 100 nM and 82 nM | –
COc1ccc(F)c(-c2ncc(COc3cccc([C@@H](CC(=O)O)C4CC4)c3)nc2OC2CC(C)(C)CC(C)(C)C2)c1 [Cpd 24, (3S)-3-cyclopropyl-3-[3-[[5-(2-fluoro-5-methoxy-phenyl)-6-(3,3,5,5-tetramethylcyclohexoxy)pyrazin-2-yl]methoxy]phenyl]propanoic acid] | 24 nM and 16 nM and 40 nM | 187 nM and 178 nM and 183 nM | –
COc1cc(-c2ncc(COc3cccc([C@@H](CC(=O)O)C4CC4)c3)nc2CC(C)C)c(F)cn1 [Cpd 2, (3S)-3-cyclopropyl-3-[3-[[5-(5-fluoro-2-methoxy-4-pyridyl)-6-isobutyl-pyrazin-2-yl]methoxy]phenyl]propanoic acid] | 2 nM (2×) and 1 nM and 3 nM | 7 nM (2×) and 8 nM and 12 nM | 87
COc1ccc(F)c(-c2ncc(COc3cccc([C@@H](CC(=O)O)C4CC4)c3)nc2-c2ccc(C)s2)c1 [Cpd 36, (3S)-3-cyclopropyl-3-[3-[[5-(2-fluoro-5-methoxy-phenyl)-6-(5-methyl-2-thienyl)pyrazin-2-yl]methoxy]phenyl]propanoic acid] | 40 nM and 38 nM | 118 nM and 109 nM and 105 nM and 86 nM | –
COc1ccc(F)c(-c2ncc(COc3cccc([C@@H](CC(=O)O)C4CC4)c3)nc2OC2COC2)c1 [Cpd 41, (3S)-3-cyclopropyl-3-[3-[[5-(2-fluoro-5-methoxy-phenyl)-6-(oxetan-3-yloxy)pyrazin-2-yl]methoxy]phenyl]propanoic acid] | 79 nM and 69 nM | 553 nM and 416 nM | –
COc1ccc(F)c(-c2ncc(COc3cccc([C@@H](CC(=O)O)C4CC4)c3)nc2OC2CC(C)(C)OC(C)(C)C2)c1 [Cpd 26, (3S)-3-cyclopropyl-3-[3-[[5-(2-fluoro-5-methoxy-phenyl)-6-(2,2,6,6-tetramethyltetrahydropyran-4-yl)oxy-pyrazin-2-yl]methoxy]phenyl]propanoic acid] | 21 nM | 111 nM and 108 nM | –
COc1ccc(F)c(-c2ncc(COc3cccc([C@@H](CC(=O)O)C4CC4)c3)nc2C2CC2)c1 [Cpd 39, (3S)-3-cyclopropyl-3-[3-[[6-cyclopropyl-5-(2-fluoro-5-methoxy-phenyl)pyrazin-2-yl]methoxy]phenyl]propanoic acid] | 130 nM and 98 nM and 64 nM and 50 nM | 395 nM and 358 nM and 247 nM and 208 nM | –
COc1ccc(F)c(-c2ncc(COc3cccc([C@@H](CC(=O)O)C4CC4)c3)nc2OCC(C)(C)C)c1 [Cpd 4, (3S)-3-cyclopropyl-3-[3-[[6-(2,2-dimethylpropoxy)-5-(2-fluoro-5-methoxy-phenyl)pyrazin-2-yl]methoxy]phenyl]propanoic acid] | 9 nM and 3 nM and 2 nM | 13 nM (2×) and 9 nM | –
COc1ccc(F)c(-c2ncc(COc3cccc([C@@H](CC(=O)O)C4CC4)c3)nc2-c2cccc(C(C)C)c2)c1 [Cpd 23, (3S)-3-cyclopropyl-3-[3-[[5-(2-fluoro-5-methoxy-phenyl)-6-(3-isopropylphenyl)pyrazin-2-yl]methoxy]phenyl]propanoic acid] | 23 nM and 14 nM | 58 nM and 50 nM | –
COc1ccc(F)c(-c2ncc(COc3cccc([C@@H](CC(=O)O)C4CC4)c3)nc2CC(C)C)c1 [Cpd 5, (3S)-3-cyclopropyl-3-[3-[[5-(2-fluoro-5-methoxy-phenyl)-6-isobutyl-pyrazin-2-yl]methoxy]phenyl]propanoic acid] | 3 nM and 2 nM | 12 nM and 10 nM | –
COc1ccc(F)c(-c2ncc(COc3cccc([C@@H](CC(=O)O)C4CC4)c3)nc2C(C)C)c1 [Cpd 37, (3S)-3-cyclopropyl-3-[3-[[5-(2-fluoro-5-methoxy-phenyl)-6-isopropyl-pyrazin-2-yl]methoxy]phenyl]propanoic acid] | 45 nM and 44 nM | 141 nM and 109 nM | –
COc1cc(-c2ncc(COc3cccc([C@@H](CC(=O)O)C4CC4)c3)nc2C2=CCCC2(C)C)ccn1 [Cpd 31, (3S)-3-cyclopropyl-3-[3-[[6-(5,5-dimethylcyclopenten-1-yl)-5-(2-methoxy-4-pyridyl)pyrazin-2-yl]methoxy]phenyl]propanoic acid] | 32 nM and 26 nM | 102 nM and 66 nM | –
COc1ccc(F)c(-c2ncc(COc3cccc([C@@H](CC(=O)O)C4CC4)c3)nc2-c2ccc(C(C)(C)C)s2)c1 [Cpd 43, (3S)-3-[3-[[6-(5-tert-butyl-2-thienyl)-5-(2-fluoro-5-methoxy-phenyl)pyrazin-2-yl]methoxy]phenyl]-3-cyclopropyl-propanoic acid] | 15 nM and 12 nM | 81 nM and 55 nM | –
COc1ccc(F)c(-c2ncc(COc3cccc([C@@H](CC(=O)O)C4CC4)c3)nc2-c2cc(C)cc(C)c2)c1 [Cpd 10, (3S)-3-cyclopropyl-3-[3-[[6-(3,5-dimethylphenyl)-5-(2-fluoro-5-methoxy-phenyl)pyrazin-2-yl]methoxy]phenyl]propanoic acid] | 8 nM and 7 nM | 33 nM and 29 nM | –
COc1ccc(F)c(-c2ncc(COc3cccc([C@@H](CC(=O)O)C4CC4)c3)nc2OC2CCCCCC2)c1 [Cpd 27, (3S)-3-[3-[[6-(cycloheptoxy)-5-(2-fluoro-5-methoxy-phenyl)pyrazin-2-yl]methoxy]phenyl]-3-cyclopropyl-propanoic acid] | 28 nM and 21 nM | 48 nM and 34 nM | –
COc1ccc(F)c(-c2ncc(COc3cccc([C@@H](CC(=O)O)C4CC4)c3)nc2OC2CCC2)c1 [Cpd 19, (3S)-3-[3-[[6-(cyclobutoxy)-5-(2-fluoro-5-methoxy-phenyl)pyrazin-2-yl]methoxy]phenyl]-3-cyclopropyl-propanoic acid] | 14 nM and 11 nM | 70 nM and 49 nM | –
COc1ccc(F)c(-c2ncc(COc3cccc([C@@H](CC(=O)O)C4CC4)c3)nc2C(C)C(F)(F)F)c1 (stereo partly drawn) [Cpd 40, (3S)-3-cyclopropyl-3-[3-[[5-(2-fluoro-5-methoxy-phenyl)-6-(2,2,2-trifluoro-1-methyl-ethyl)pyrazin-2-yl]methoxy]phenyl]propanoic acid] | 64 nM and 52 nM | 253 nM and 249 nM and 236 nM and 227 nM | –
